Data: the NIST ThermoML archive (doi:10.1021/acs.jced.7b01125)
± gives the expanded uncertainty stated by the source.

Assay: xn = mol fraction of the nth substance listed
Conditions: Gas, Buoyancy - hydrostatic balance with magnetic suspension - one sinker

[HH] [hydrogen] + C
mass density (324.96 K, 10000 kPa, x2 = 0.9): 58.331 ± 0.044 kg/m3
mass density (324.96 K, 11000 kPa, x2 = 0.4997): 36.202 ± 0.047 kg/m3
mass density (324.96 K, 11001 kPa, x2 = 0.9): 64.438 ± 0.045 kg/m3
mass density (324.96 K, 12002 kPa, x2 = 0.4997): 39.381 ± 0.051 kg/m3
mass density (324.96 K, 12003 kPa, x2 = 0.9): 70.531 ± 0.045 kg/m3
mass density (324.96 K, 12999 kPa, x2 = 0.4997): 42.522 ± 0.053 kg/m3
mass density (324.96 K, 13002 kPa, x2 = 0.9): 76.592 ± 0.046 kg/m3
mass density (324.96 K, 14000 kPa, x2 = 0.4997): 45.642 ± 0.056 kg/m3
mass density (324.96 K, 14001 kPa, x2 = 0.9499): 88.324 ± 0.048 kg/m3
mass density (324.96 K, 14003 kPa, x2 = 0.9): 82.625 ± 0.047 kg/m3
mass density (324.96 K, 14998 kPa, x2 = 0.4997): 48.72 ± 0.06 kg/m3
mass density (324.96 K, 15000 kPa, x2 = 0.9): 88.578 ± 0.047 kg/m3
mass density (324.96 K, 15003 kPa, x2 = 0.9499): 94.801 ± 0.049 kg/m3
mass density (324.96 K, 15999 kPa, x2 = 0.4997): 51.775 ± 0.063 kg/m3
mass density (324.96 K, 16001 kPa, x2 = 0.9): 94.491 ± 0.048 kg/m3
mass density (324.96 K, 16003 kPa, x2 = 0.9499): 101.187 ± 0.05 kg/m3
mass density (324.96 K, 16999 kPa, x2 = 0.4997): 54.795 ± 0.066 kg/m3
mass density (324.96 K, 16999 kPa, x2 = 0.9): 100.301 ± 0.049 kg/m3
mass density (324.96 K, 17994 kPa, x2 = 0.4997): 57.761 ± 0.069 kg/m3
mass density (324.96 K, 18000 kPa, x2 = 0.9499): 113.635 ± 0.05 kg/m3
mass density (324.96 K, 18006 kPa, x2 = 0.9): 106.065 ± 0.049 kg/m3
mass density (324.96 K, 19001 kPa, x2 = 0.9): 111.659 ± 0.051 kg/m3
mass density (324.96 K, 19002 kPa, x2 = 0.4997): 60.728 ± 0.072 kg/m3
mass density (324.96 K, 19004 kPa, x2 = 0.9499): 119.703 ± 0.051 kg/m3
mass density (324.96 K, 19631 kPa, x2 = 0.4997): 62.562 ± 0.075 kg/m3
mass density (324.96 K, 19902 kPa, x2 = 0.9): 116.626 ± 0.051 kg/m3
mass density (324.96 K, 19924 kPa, x2 = 0.9499): 125.148 ± 0.054 kg/m3
mass density (324.97 K, 999 kPa, x2 = 0.9499): 5.733 ± 0.038 kg/m3
mass density (324.97 K, 1999 kPa, x2 = 0.9499): 11.594 ± 0.039 kg/m3
mass density (324.97 K, 2985 kPa, x2 = 0.9499): 17.488 ± 0.039 kg/m3
mass density (324.97 K, 3998 kPa, x2 = 0.9499): 23.665 ± 0.041 kg/m3
mass density (324.97 K, 4999 kPa, x2 = 0.9499): 29.867 ± 0.042 kg/m3
mass density (324.97 K, 5999 kPa, x2 = 0.9499): 36.165 ± 0.042 kg/m3
mass density (324.97 K, 6999 kPa, x2 = 0.9499): 42.544 ± 0.043 kg/m3
mass density (324.97 K, 7999 kPa, x2 = 0.9499): 49.004 ± 0.044 kg/m3
mass density (324.97 K, 10000 kPa, x2 = 0.9499): 62.076 ± 0.046 kg/m3
mass density (324.97 K, 11004 kPa, x2 = 0.9499): 68.681 ± 0.046 kg/m3
mass density (324.97 K, 12002 kPa, x2 = 0.9499): 75.249 ± 0.047 kg/m3
mass density (324.97 K, 13002 kPa, x2 = 0.9499): 81.811 ± 0.048 kg/m3
mass density (324.97 K, 17001 kPa, x2 = 0.9499): 107.464 ± 0.049 kg/m3
mass density (349.95 K, 999 kPa, x2 = 0.9): 5.061 ± 0.035 kg/m3
mass density (349.95 K, 999 kPa, x2 = 0.9499): 5.309 ± 0.036 kg/m3
mass density (349.95 K, 1003 kPa, x2 = 0.4997): 3.109 ± 0.029 kg/m3
mass density (349.95 K, 1999 kPa, x2 = 0.9): 10.188 ± 0.035 kg/m3
mass density (349.95 K, 1999 kPa, x2 = 0.9499): 10.702 ± 0.033 kg/m3
mass density (349.95 K, 2004 kPa, x2 = 0.4997): 6.207 ± 0.029 kg/m3
mass density (349.95 K, 2985 kPa, x2 = 0.9): 15.301 ± 0.036 kg/m3
mass density (349.95 K, 2999 kPa, x2 = 0.9499): 16.173 ± 0.037 kg/m3
mass density (349.95 K, 3002 kPa, x2 = 0.4997): 9.284 ± 0.03 kg/m3
mass density (349.95 K, 3999 kPa, x2 = 0.9): 20.614 ± 0.037 kg/m3
mass density (349.95 K, 4000 kPa, x2 = 0.9499): 21.712 ± 0.038 kg/m3
mass density (349.95 K, 4004 kPa, x2 = 0.4997): 12.364 ± 0.031 kg/m3
mass density (349.95 K, 4999 kPa, x2 = 0.9): 25.902 ± 0.038 kg/m3
mass density (349.95 K, 4999 kPa, x2 = 0.9499): 27.309 ± 0.039 kg/m3
mass density (349.95 K, 5003 kPa, x2 = 0.4997): 15.42 ± 0.032 kg/m3
mass density (349.95 K, 5998 kPa, x2 = 0.9): 31.226 ± 0.039 kg/m3
mass density (349.95 K, 5998 kPa, x2 = 0.9499): 32.957 ± 0.04 kg/m3
mass density (349.95 K, 6002 kPa, x2 = 0.4997): 18.469 ± 0.034 kg/m3
mass density (349.95 K, 6998 kPa, x2 = 0.9): 36.584 ± 0.039 kg/m3
mass density (349.95 K, 7000 kPa, x2 = 0.9499): 38.671 ± 0.041 kg/m3
mass density (349.95 K, 7001 kPa, x2 = 0.4997): 21.49 ± 0.036 kg/m3
mass density (349.95 K, 7998 kPa, x2 = 0.9499): 44.399 ± 0.041 kg/m3
mass density (349.95 K, 7999 kPa, x2 = 0.9): 41.97 ± 0.04 kg/m3
mass density (349.95 K, 8001 kPa, x2 = 0.4997): 24.491 ± 0.037 kg/m3
mass density (349.95 K, 8997 kPa, x2 = 0.9): 47.361 ± 0.041 kg/m3
mass density (349.95 K, 8997 kPa, x2 = 0.9499): 50.163 ± 0.042 kg/m3
mass density (349.95 K, 9000 kPa, x2 = 0.4997): 27.473 ± 0.039 kg/m3
mass density (349.95 K, 9996 kPa, x2 = 0.9499): 55.938 ± 0.043 kg/m3
mass density (349.95 K, 9999 kPa, x2 = 0.4997): 30.433 ± 0.042 kg/m3
mass density (349.95 K, 10000 kPa, x2 = 0.9): 52.782 ± 0.041 kg/m3
mass density (349.95 K, 10999 kPa, x2 = 0.9499): 61.741 ± 0.043 kg/m3
mass density (349.95 K, 11000 kPa, x2 = 0.9): 58.181 ± 0.042 kg/m3
mass density (349.95 K, 11001 kPa, x2 = 0.4997): 33.381 ± 0.044 kg/m3
mass density (349.95 K, 11995 kPa, x2 = 0.4997): 36.281 ± 0.046 kg/m3
mass density (349.95 K, 11997 kPa, x2 = 0.9499): 67.507 ± 0.044 kg/m3
mass density (349.95 K, 12003 kPa, x2 = 0.9): 63.582 ± 0.042 kg/m3
mass density (349.95 K, 12996 kPa, x2 = 0.4997): 39.178 ± 0.049 kg/m3
mass density (349.95 K, 12998 kPa, x2 = 0.9499): 73.267 ± 0.044 kg/m3
mass density (349.95 K, 13000 kPa, x2 = 0.9): 68.93 ± 0.043 kg/m3
mass density (349.95 K, 13993 kPa, x2 = 0.4997): 42.035 ± 0.051 kg/m3
mass density (349.95 K, 13994 kPa, x2 = 0.9): 74.229 ± 0.044 kg/m3
mass density (349.95 K, 13998 kPa, x2 = 0.9499): 78.993 ± 0.044 kg/m3
mass density (349.95 K, 14997 kPa, x2 = 0.9499): 84.669 ± 0.045 kg/m3
mass density (349.95 K, 14998 kPa, x2 = 0.9): 79.534 ± 0.044 kg/m3
mass density (349.95 K, 15001 kPa, x2 = 0.4997): 44.896 ± 0.054 kg/m3
mass density (349.95 K, 15997 kPa, x2 = 0.9): 84.764 ± 0.045 kg/m3
mass density (349.95 K, 15998 kPa, x2 = 0.4997): 47.697 ± 0.057 kg/m3
mass density (349.95 K, 15998 kPa, x2 = 0.9499): 90.284 ± 0.045 kg/m3
mass density (349.95 K, 16997 kPa, x2 = 0.4997): 50.454 ± 0.059 kg/m3
mass density (349.95 K, 16998 kPa, x2 = 0.9499): 95.842 ± 0.046 kg/m3
mass density (349.95 K, 17000 kPa, x2 = 0.9): 89.954 ± 0.045 kg/m3
mass density (349.95 K, 17989 kPa, x2 = 0.4997): 53.192 ± 0.059 kg/m3
mass density (349.95 K, 17998 kPa, x2 = 0.9499): 101.317 ± 0.047 kg/m3
mass density (349.95 K, 19002 kPa, x2 = 0.4997): 55.94 ± 0.066 kg/m3
mass density (349.95 K, 19002 kPa, x2 = 0.9499): 106.734 ± 0.047 kg/m3
mass density (349.95 K, 19350 kPa, x2 = 0.9): 101.832 ± 0.047 kg/m3
mass density (349.95 K, 19873 kPa, x2 = 0.9499): 111.352 ± 0.047 kg/m3
mass density (349.95 K, 19933 kPa, x2 = 0.4997): 58.441 ± 0.066 kg/m3
